In ChEMBL document CHEMBL1681651, “A broad spectrum anticancer nucleoside with selective toxicity against human colon cells in vitro” (2011):

Columns and labels:
Assay type in all cases: functional
[1] = tested on: SK-MEL-5; assay: Growth inhibition of human SK-MEL-5 cells after 48 hrs by […] growth inhibition assay; details: SK-MEL-5, 48 h
[2] = tested on: MDA-MB-435; assay: Growth inhibition of human MDA-MB-435 cells assessed as cell growth at 1 uM after 48 hrs by SRB assay; details: MDA-MB-435, 48 h, read-out: Activity
[3] = tested on: SF-295; assay: Growth inhibition of human SF295 cells assessed as cell growth at 100 uM after 48 hrs by SRB assay; details: SF-295, 48 h, read-out: Activity
[4] = tested on: BT-549; assay: Growth inhibition of human BT549 cells after 48 hrs by […] growth inhibition assay; details: BT-549, 48 h
[5] = tested on: NCI/ADR-RES; assay: Growth inhibition of human NCI/ADR-RES cells assessed as cell growth at 0.1 uM after 48 hrs by SRB assay; details: read-out: Activity
[6] = tested on: SNB-19; assay: Growth inhibition of human SNB19 cells assessed as cell growth at 1 uM after 48 hrs by SRB assay; details: SNB-19, 48 h, read-out: Activity
[7] = tested on: LOX IMVI; assay: Growth inhibition of human LOXIMVI cells assessed as cell growth at 0.1 uM after 48 hrs by SRB assay; details: read-out: Activity
[8] = tested on: PC-3; assay: Growth inhibition of human PC3 cells after 48 hrs by […] growth inhibition assay; details: PC-3, 48 h
[9] = tested on: LOX IMVI; assay: Growth inhibition of human LOXIMVI cells assessed as cell growth at 10 uM after 48 hrs by SRB assay; details: read-out: Activity
[10] = tested on: COLO 205; assay: Growth inhibition of human COLO205 cells assessed as cell growth at 10 uM after 48 hrs by SRB assay; details: COLO 205, 48 h, read-out: Activity
[11] = tested on: KM12; assay: Growth inhibition of human KM12 cells after 48 hrs by […] growth inhibition assay; details: KM12, 48 h
[12] = tested on: SF-295; assay: Growth inhibition of human SF295 cells assessed as cell growth at 0.1 uM after 48 hrs by SRB assay; details: SF-295, 48 h, read-out: Activity
[13] = tested on: HCT-116; assay: Growth inhibition of human HCT116 cells assessed as cell growth at 10 uM after 48 hrs by SRB assay; details: HCT-116, 48 h, read-out: Activity
[14] = tested on: SF-268; assay: Growth inhibition of human SF268 cells assessed as cell growth at 100 uM after 48 hrs by SRB assay; details: SF-268, 48 h, read-out: Activity
[15] = tested on: MDA-MB-231; assay: Growth inhibition of human MDA-MB-231 cells assessed as cell growth at 1 uM after 48 hrs by SRB assay; details: MDA-MB-231, 48 h, read-out: Activity
[16] = tested on: SN12C; assay: Growth inhibition of human SN12C cells assessed as cell growth at 1 uM after 48 hrs by SRB assay; details: read-out: Activity
[17] = tested on: NCI/ADR-RES; assay: Growth inhibition of human NCI/ADR-RES cells assessed as cell growth at 100 uM after 48 hrs by SRB assay; details: read-out: Activity
[18] = tested on: NCI-H322M; assay: Growth inhibition of human NCI-H322M cells assessed as cell growth at 1 mM after 48 hrs by SRB assay; details: read-out: Activity
[19] = tested on: SF-295; assay: Growth inhibition of human SF295 cells assessed as cell growth at 1 uM after 48 hrs by SRB assay; details: SF-295, 48 h, read-out: Activity
[20] = tested on: UACC-62; assay: Growth inhibition of human UACC62 cells assessed as cell growth at 0.1 uM after 48 hrs by SRB assay; details: UACC-62, 48 h, read-out: Activity
[21] = tested on: MDA-MB-468; assay: Growth inhibition of human MDA-MB-468 cells after 48 hrs by […] growth inhibition assay; details: MDA-MB-468, 48 h, read-out: LC50 (the source's name)
[22] = tested on: HCT-116; assay: Growth inhibition of human HCT116 cells after 48 hrs by […] growth inhibition assay; details: HCT-116, 48 h
[23] = tested on: OVCAR-5; assay: Growth inhibition of human OVCAR5 cells assessed as cell growth at 100 uM after 48 hrs by SRB assay; details: OVCAR-5, 48 h, read-out: Activity
[24] = tested on: A498; assay: Growth inhibition of human A498 cells assessed as cell growth at 1 mM after 48 hrs by SRB assay; details: A498, 48 h, read-out: Activity
[25] = tested on: OVCAR-4; assay: Growth inhibition of human OVCAR4 cells assessed as cell growth at 1 uM after 48 hrs by SRB assay; details: OVCAR-4, 48 h, read-out: Activity
[26] = tested on: ACHN; assay: Growth inhibition of human ACHN cells assessed as cell growth at 1 mM after 48 hrs by SRB assay; details: read-out: Activity
[27] = tested on: A549; assay: Growth inhibition of human A549 cells assessed as cell growth at 1 uM after 48 hrs by SRB assay; details: A549, 48 h, read-out: Activity
[28] = tested on: SK-MEL-28; assay: Growth inhibition of human SK-MEL-28 cells after 48 hrs by […] growth inhibition assay; details: SK-MEL-28, 48 h
[29] = tested on: SK-MEL-5; assay: Growth inhibition of human SK-MEL-5 cells assessed as cell growth at 100 uM after 48 hrs by SRB assay; details: SK-MEL-5, 48 h, read-out: Activity
[30] = tested on: KM12; assay: Growth inhibition of human KM12 cells assessed as cell growth at 10 uM after 48 hrs by SRB assay; details: KM12, 48 h, read-out: Activity
[31] = tested on: EKVX; assay: Growth inhibition of human EKVX cells assessed as cell growth at 100 uM after 48 hrs by SRB assay; details: read-out: Activity
[32] = tested on: HL-60(TB); assay: Growth inhibition of human HL-60(TB) cells assessed as cell growth at 10 uM after 48 hrs by SRB assay; details: HL-60, 48 h, read-out: Activity
[33] = tested on: IGROV-1; assay: Growth inhibition of human IGROV1 cells assessed as cell growth at 1 uM after 48 hrs by SRB assay; details: IGROV-1, 48 h, read-out: Activity
[34] = read-out: LC50 (the source's name)
[35] = read-out: pLC50 (the source's name) (converted)

SMILES: CCOC(=O)C[C@H]1[C@@H](O[Si](C)(C)C(C)(C)C)[C@H](n2cnc3c(NC(=O)Nc4ccccc4)ncnc32)O[C@@H]1CNC(=O)NC
- GI50 ([1]; read-out: GI50): 4.34 µM
- CC50 [1, 34]: > 100 µM
- TGI ([1]; read-out: TGI): > 100 µM
- GI50 ([1]; read-out: pGI50 (converted)): 4.37 µM
- CC50 [1, 35]: > 100 µM
- TGI ([1]; read-out: pTGI (converted)): > 100 µM
- growth at 1 µM [2]: 92%
- growth at 100 µM [3]: 38%
- GI50 ([4]; read-out: GI50): > 100 µM
- CC50 [4, 34]: > 100 µM
- TGI ([4]; read-out: TGI): > 100 µM
- GI50 ([4]; read-out: pGI50 (converted)): > 100 µM
- CC50 [4, 35]: > 100 µM
- TGI ([4]; read-out: pTGI (converted)): > 100 µM
- growth at 0.1 µM [5]: 105%
- growth at 1 µM [6]: 95%
- growth at 0.1 µM [7]: 97%
- GI50 ([8]; read-out: GI50): 2.25 µM
- CC50 [8, 34]: 78.4 µM
- TGI ([8]; read-out: TGI): 48.5 µM
- GI50 ([8]; read-out: pGI50 (converted)): 2.24 µM
- CC50 [8, 35]: 12.6 µM
- TGI ([8]; read-out: pTGI (converted)): 4.9 µM
- growth at 10 µM [9]: 93%
- growth at 10 µM [10]: 93%
- GI50 ([11]; read-out: GI50): 3.95 µM
- CC50 [11, 34]: > 100 µM
- TGI ([11]; read-out: TGI): 20.9 µM
- GI50 ([11]; read-out: pGI50 (converted)): 3.98 µM
- CC50 [11, 35]: > 100 µM
- TGI ([11]; read-out: pTGI (converted)): 20.9 µM
- growth at 0.1 µM [12]: 91%
- growth at 10 µM [13]: 78%
- growth at 100 µM [14]: 40%
- growth at 1 µM [15]: 103%
- growth at 1 µM [16]: 101%
- growth at 100 µM [17]: 80%
- growth at 1000 µM [18]: 72%
- growth at 1 µM [19]: 91%
- growth at 0.1 µM [20]: 100%
- CC50 [21]: > 100 µM
- GI50 ([22]; read-out: GI50): 3.2 µM
- CC50 [22, 34]: 45.6 µM
- TGI ([22]; read-out: TGI): 16.1 µM
- GI50 ([22]; read-out: pGI50 (converted)): 3.24 µM
- CC50 [22, 35]: 45.7 µM
- TGI ([22]; read-out: pTGI (converted)): 16.2 µM
- growth at 100 µM [23]: 72%
- growth at 1000 µM [24]: -41%
- growth at 1 µM [25]: 103%
- growth at 1000 µM [26]: 35%
- growth at 1 µM [27]: 103%
- GI50 ([28]; read-out: GI50): 6.85 µM
- CC50 [28, 34]: 48.7 µM
- TGI ([28]; read-out: TGI): 20.2 µM
- GI50 ([28]; read-out: pGI50 (converted)): 6.92 µM
- CC50 [28, 35]: > 49 µM
- TGI ([28]; read-out: pTGI (converted)): 20.4 µM
- growth at 100 µM [29]: 28%
- growth at 10 µM [30]: 105%
- growth at 100 µM [31]: 53%
- growth at 10 µM [32]: 101%
- growth at 1 µM [33]: 94%
